From PMC5564600 (Oncotarget, 2017)

Experiments:
Assay in all cases: biochemical
Format in all cases: binding
panel of 442 kinases [1] = target: T1, panel of 442 kinases (Homo sapiens, UniProt P41240); settings: CSK; for remaining activity at 1 µM: read-out: % of control at 1 µM
T1 construct: purchased Ambit Biosciences (scanMAXX KINOMEscan)

panel of 442 kinases [2] = target: T2, panel of 442 kinases (Homo sapiens, UniProt P20794); settings: kinase MAK; for remaining activity at 1 µM: read-out: % of control at 1 µM
T2 construct: purchased Ambit Biosciences (scanMAXX KINOMEscan)
T2 sequence (P20794 1-623): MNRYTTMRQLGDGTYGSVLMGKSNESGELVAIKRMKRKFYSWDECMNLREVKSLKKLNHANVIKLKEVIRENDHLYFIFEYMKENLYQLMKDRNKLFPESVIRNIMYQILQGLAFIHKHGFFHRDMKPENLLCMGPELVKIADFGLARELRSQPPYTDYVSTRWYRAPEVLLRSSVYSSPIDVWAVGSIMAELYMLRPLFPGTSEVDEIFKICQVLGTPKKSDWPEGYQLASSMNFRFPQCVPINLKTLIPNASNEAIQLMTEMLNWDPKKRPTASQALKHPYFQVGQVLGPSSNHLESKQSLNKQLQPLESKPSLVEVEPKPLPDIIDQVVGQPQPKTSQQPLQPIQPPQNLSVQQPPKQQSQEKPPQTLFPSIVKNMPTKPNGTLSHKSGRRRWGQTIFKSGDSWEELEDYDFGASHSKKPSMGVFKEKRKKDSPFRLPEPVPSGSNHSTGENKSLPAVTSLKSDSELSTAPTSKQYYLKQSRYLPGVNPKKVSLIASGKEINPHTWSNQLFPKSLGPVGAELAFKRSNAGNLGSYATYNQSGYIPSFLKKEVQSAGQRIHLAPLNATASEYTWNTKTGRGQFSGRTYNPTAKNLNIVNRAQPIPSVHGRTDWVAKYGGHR

panel of 442 kinases [3] = target: T3, panel of 442 kinases (Homo sapiens, UniProt P37173); settings: kinase TGFBR2; for remaining activity at 1 µM: read-out: TGFBR2 (% of control at 1 µM)
T3 construct: purchased Ambit Biosciences (scanMAXX KINOMEscan)

panel of 442 kinases [4] = target: T4, panel of 442 kinases (Homo sapiens, UniProt Q15831); settings: kinase LKB1; for remaining activity at 1 µM: read-out: % of control at 1 µM
T4 construct: purchased Ambit Biosciences (scanMAXX KINOMEscan)
T4 sequence (Q15831 1-433): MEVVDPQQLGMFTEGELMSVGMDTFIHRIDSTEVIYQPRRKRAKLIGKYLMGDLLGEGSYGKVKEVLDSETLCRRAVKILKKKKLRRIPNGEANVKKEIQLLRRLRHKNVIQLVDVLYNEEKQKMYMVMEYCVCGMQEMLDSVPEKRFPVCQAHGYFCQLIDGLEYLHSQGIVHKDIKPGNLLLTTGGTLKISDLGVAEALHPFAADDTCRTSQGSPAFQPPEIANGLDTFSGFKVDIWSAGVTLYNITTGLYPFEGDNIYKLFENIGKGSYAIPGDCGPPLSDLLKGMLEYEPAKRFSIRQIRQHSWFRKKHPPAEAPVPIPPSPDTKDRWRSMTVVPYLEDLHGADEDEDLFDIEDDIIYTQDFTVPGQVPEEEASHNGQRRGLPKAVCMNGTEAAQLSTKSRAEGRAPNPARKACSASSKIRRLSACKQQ

panel of 442 kinases [5] = target: T5, panel of 442 kinases (Homo sapiens, UniProt O15197); settings: EPHB6; for remaining activity at 1 µM: read-out: % of control at 1 µM
T5 construct: purchased Ambit Biosciences (scanMAXX KINOMEscan)
T5 sequence (O15197 32-1021): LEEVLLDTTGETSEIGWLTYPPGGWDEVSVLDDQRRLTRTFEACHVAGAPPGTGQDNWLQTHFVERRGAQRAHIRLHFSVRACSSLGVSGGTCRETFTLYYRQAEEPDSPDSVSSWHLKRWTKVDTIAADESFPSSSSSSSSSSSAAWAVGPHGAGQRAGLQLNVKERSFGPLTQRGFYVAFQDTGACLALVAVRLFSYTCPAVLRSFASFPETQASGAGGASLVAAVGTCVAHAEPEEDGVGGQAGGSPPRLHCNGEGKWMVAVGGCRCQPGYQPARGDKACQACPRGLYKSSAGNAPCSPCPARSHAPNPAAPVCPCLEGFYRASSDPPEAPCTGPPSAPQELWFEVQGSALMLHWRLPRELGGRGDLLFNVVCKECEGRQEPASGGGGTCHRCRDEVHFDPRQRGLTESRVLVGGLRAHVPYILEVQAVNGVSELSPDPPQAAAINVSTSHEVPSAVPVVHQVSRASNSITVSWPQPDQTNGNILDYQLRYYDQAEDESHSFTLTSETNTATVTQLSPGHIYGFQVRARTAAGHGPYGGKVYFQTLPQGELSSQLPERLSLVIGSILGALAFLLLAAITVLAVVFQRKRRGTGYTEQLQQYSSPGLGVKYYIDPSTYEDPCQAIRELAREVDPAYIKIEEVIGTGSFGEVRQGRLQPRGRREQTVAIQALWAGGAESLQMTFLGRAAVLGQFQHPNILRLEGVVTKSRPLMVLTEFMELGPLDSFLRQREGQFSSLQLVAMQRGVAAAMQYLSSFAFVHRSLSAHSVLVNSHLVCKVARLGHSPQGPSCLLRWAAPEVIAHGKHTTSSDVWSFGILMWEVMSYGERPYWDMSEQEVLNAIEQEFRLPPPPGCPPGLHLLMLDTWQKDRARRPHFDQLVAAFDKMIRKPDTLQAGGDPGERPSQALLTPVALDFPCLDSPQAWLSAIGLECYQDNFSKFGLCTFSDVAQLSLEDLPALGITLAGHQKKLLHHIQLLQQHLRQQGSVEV

panel of 442 kinases [6] = target: T6, panel of 442 kinases (Homo sapiens, UniProt P06239); settings: kinase LCK; for remaining activity at 1 µM: read-out: % of control at 1 µM
T6 construct: purchased Ambit Biosciences (scanMAXX KINOMEscan)

panel of 442 kinases [7] = target: T7, panel of 442 kinases (Homo sapiens, UniProt Q16659); settings: ERK3; for remaining activity at 1 µM: read-out: % of control at 1 µM
T7 construct: purchased Ambit Biosciences (scanMAXX KINOMEscan)

panel of 442 kinases [8] = target: T8, panel of 442 kinases (Homo sapiens, UniProt P53667); settings: kinase LIMK1; for remaining activity at 1 µM: read-out: % of control at 1 µM
T8 construct: purchased Ambit Biosciences (scanMAXX KINOMEscan)

panel of 442 kinases [9] = target: T9, panel of 442 kinases (Homo sapiens, UniProt Q96SB4); settings: kinase SRPK1; for remaining activity at 1 µM: read-out: SRPK1 (% of control at 1 µM)
T9 construct: purchased Ambit Biosciences (scanMAXX KINOMEscan)

panel of 442 kinases [10] = target: T10, panel of 442 kinases (Homo sapiens, UniProt Q9P1W9); settings: kinase PIM2; for remaining activity at 1 µM: read-out: % of control at 1 µM
T10 construct: purchased Ambit Biosciences (scanMAXX KINOMEscan)

[11] = 10 µM, read-out: % of control at 10 µM

T8 sequence (P53667 whole entry): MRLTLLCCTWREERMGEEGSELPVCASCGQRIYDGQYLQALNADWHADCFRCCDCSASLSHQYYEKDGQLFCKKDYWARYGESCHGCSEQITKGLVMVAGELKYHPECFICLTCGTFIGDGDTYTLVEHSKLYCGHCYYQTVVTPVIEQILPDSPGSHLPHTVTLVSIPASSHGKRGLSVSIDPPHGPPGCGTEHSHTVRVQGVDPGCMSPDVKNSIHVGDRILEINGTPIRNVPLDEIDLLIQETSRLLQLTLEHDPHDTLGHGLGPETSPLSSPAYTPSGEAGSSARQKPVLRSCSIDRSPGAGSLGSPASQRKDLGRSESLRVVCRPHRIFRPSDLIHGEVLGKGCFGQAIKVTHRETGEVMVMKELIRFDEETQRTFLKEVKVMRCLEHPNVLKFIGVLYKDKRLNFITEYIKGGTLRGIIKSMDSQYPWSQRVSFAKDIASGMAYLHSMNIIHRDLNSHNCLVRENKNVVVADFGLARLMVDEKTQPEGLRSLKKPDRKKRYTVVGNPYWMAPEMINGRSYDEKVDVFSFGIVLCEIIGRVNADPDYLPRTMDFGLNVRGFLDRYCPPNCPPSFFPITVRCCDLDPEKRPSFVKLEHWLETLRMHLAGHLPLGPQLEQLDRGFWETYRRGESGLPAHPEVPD
T6 sequence (P06239 whole entry): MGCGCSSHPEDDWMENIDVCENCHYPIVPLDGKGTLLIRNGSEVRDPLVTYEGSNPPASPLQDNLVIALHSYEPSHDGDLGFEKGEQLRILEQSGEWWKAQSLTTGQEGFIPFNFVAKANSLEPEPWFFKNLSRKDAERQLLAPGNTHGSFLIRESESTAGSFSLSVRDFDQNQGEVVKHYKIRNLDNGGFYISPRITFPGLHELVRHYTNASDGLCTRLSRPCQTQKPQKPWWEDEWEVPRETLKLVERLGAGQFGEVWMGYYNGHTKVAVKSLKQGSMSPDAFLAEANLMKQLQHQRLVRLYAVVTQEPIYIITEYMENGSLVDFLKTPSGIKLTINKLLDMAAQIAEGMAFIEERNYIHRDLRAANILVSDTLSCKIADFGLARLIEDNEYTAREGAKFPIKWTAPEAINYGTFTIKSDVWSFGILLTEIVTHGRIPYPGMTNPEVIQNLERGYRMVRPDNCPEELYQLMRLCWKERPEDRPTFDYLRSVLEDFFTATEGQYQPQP
T9 sequence (Q96SB4 whole entry): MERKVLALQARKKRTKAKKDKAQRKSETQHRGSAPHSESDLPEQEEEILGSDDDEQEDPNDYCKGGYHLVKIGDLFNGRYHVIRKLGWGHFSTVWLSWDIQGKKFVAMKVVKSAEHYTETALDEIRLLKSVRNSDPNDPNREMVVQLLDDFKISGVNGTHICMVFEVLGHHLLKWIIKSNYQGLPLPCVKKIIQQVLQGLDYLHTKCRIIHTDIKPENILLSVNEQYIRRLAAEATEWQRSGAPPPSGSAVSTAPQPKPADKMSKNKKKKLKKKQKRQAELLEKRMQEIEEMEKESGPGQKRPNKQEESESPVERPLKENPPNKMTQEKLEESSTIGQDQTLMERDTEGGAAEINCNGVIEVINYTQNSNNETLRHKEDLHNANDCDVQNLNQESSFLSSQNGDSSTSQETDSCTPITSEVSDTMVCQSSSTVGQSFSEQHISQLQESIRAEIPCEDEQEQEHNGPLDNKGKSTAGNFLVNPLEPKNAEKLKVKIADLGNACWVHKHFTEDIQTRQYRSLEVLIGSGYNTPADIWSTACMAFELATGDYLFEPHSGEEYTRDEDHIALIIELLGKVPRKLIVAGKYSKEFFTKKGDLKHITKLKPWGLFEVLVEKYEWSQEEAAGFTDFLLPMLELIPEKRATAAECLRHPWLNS
T7 sequence (Q16659 whole entry): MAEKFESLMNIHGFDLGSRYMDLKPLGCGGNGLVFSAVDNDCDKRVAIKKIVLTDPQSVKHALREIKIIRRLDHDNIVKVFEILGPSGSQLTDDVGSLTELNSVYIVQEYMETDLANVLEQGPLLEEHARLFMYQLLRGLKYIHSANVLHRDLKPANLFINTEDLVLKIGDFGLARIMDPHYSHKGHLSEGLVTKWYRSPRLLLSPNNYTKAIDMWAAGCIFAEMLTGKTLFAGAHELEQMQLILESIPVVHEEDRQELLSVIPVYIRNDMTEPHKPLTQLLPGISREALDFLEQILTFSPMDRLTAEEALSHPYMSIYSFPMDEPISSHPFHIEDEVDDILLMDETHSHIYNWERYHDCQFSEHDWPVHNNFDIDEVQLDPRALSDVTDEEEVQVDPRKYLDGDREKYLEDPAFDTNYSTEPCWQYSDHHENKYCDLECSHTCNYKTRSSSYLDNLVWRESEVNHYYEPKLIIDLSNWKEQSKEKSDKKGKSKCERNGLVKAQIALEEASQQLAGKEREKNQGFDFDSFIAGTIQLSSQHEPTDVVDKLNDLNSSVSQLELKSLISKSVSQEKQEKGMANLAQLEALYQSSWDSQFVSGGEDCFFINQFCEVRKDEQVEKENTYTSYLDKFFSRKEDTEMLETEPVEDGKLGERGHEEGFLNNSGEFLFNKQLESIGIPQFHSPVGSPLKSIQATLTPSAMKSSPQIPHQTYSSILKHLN
T1 sequence (P41240 whole entry): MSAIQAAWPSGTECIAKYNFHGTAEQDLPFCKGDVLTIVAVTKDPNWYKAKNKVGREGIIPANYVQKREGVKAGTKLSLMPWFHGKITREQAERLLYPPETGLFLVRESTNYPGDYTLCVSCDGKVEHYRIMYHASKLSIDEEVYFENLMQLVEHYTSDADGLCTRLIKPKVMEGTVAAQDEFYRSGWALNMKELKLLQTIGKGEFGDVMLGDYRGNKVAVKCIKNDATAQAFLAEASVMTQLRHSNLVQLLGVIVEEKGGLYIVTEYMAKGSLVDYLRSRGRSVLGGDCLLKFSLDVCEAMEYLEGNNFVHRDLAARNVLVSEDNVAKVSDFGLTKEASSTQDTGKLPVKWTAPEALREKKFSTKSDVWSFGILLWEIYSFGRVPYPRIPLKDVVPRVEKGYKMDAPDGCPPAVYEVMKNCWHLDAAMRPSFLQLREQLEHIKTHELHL
T10 sequence (Q9P1W9 whole entry): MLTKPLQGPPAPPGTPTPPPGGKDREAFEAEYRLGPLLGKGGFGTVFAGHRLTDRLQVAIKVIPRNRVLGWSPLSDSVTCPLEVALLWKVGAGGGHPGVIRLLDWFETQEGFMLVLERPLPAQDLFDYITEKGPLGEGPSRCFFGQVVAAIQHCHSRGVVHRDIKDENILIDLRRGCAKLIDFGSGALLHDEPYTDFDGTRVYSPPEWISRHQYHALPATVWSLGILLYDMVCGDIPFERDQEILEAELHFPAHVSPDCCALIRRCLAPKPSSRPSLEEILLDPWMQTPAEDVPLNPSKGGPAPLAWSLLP
T3 sequence (P37173 23-567): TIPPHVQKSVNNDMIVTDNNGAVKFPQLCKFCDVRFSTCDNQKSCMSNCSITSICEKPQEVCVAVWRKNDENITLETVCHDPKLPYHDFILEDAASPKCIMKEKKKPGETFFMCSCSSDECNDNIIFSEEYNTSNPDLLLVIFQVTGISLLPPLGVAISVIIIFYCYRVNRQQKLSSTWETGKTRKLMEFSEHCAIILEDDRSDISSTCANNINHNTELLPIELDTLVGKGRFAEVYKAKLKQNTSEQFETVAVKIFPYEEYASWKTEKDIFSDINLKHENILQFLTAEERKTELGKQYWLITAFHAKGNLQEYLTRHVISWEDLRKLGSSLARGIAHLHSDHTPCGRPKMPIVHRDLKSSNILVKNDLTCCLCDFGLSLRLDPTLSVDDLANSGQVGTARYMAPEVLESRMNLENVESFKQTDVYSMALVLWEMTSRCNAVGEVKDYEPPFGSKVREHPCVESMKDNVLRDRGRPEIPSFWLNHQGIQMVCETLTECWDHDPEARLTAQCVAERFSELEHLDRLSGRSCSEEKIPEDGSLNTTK

| Compound | remaining activity at 1 µM (panel of 442 kinases [1]) | remaining activity at 10 µM (panel of 442 kinases [1]; [11]) | remaining activity at 1 µM (panel of 442 kinases [2]) | remaining activity at 10 µM (panel of 442 kinases [2]; [11]) | remaining activity at 1 µM (panel of 442 kinases [3]) | remaining activity at 10 µM (panel of 442 kinases [3]; 10 µM, read-out: TGFBR2 (% of control at 10 µM)) | remaining activity at 1 µM (panel of 442 kinases [4]) | remaining activity at 10 µM (panel of 442 kinases [4]; [11]) | remaining activity at 1 µM (panel of 442 kinases [5]) | remaining activity at 10 µM (panel of 442 kinases [5]; [11]) | remaining activity at 1 µM (panel of 442 kinases [6]) | remaining activity at 10 µM (panel of 442 kinases [6]; [11]) | remaining activity at 1 µM (panel of 442 kinases [7]) | remaining activity at 10 µM (panel of 442 kinases [7]; [11]) | remaining activity at 1 µM (panel of 442 kinases [8]) | remaining activity at 10 µM (panel of 442 kinases [8]; [11]) | remaining activity at 1 µM (panel of 442 kinases [9]) | remaining activity at 10 µM (panel of 442 kinases [9]; 10 µM, read-out: SRPK1 (% of control at 10 µM)) | remaining activity at 1 µM (panel of 442 kinases [10]) | remaining activity at 10 µM (panel of 442 kinases [10]; [11]) |
| --- | --- | --- | --- | --- | --- | --- | --- | --- | --- | --- | --- | --- | --- | --- | --- | --- | --- | --- | --- | --- |
| Nc1cc(C(F)(F)F)c(-c2cc(N3CCOCC3)nc(N3CCOCC3)n2)cn1 [Buparlisib] | 94% | 100% | 98% | 89% | 98% | 100% | 100% | 99% | 76% | 89% | 100% | 100% | 96% | 99% | 100% | 100% | 100% | 100% | 91% | 100% |
| Cn1c(=O)n(-c2ccc(C(C)(C)C#N)cc2)c2c3cc(-c4cnc5ccccc5c4)ccc3ncc21 [Dactolisib, 2-methyl-2-[4-(3-methyl-2-oxo-8-quinolin-3-yl-2,3-dihydroimidazo[4,5-c]quinolin-1-yl)-phenyl] propionitrile] | 81% |  | 64% |  | 100% |  | 93% |  | 100% |  | 88% |  | 97% |  | 99% |  | 88% |  | 100% |  |
| COc1ncc(-c2ccc3nccc(-c4ccnnc4)c3c2)cc1NS(=O)(=O)c1ccc(F)cc1F [Omipalisib] | 98% |  | 71% |  | 95% |  | 100% |  | 57% |  | 100% |  | 85% |  | 100% |  | 100% |  | 98% |  |
| FC(F)c1nc2ccccc2n1-c1nc(N2CCOCC2)nc(N2CCOCC2)n1 [ZSTK474, 2-(difluoromethyl)-1-[4,6-di(4-morpholinyl)-1,3,5-triazin-2-yl]-1H-benzimidazole] | 89% |  | 87% |  | 100% |  | 100% |  | 100% |  | 100% |  | 100% |  | 95% |  | 67% |  | 100% |  |
